Like-named read-outs stand apart in the source and are kept apart here. *1 amine or outer side, *2 acyl side, *3 side chain or, on linkers, in order; H or OH if unused. Where a SMILES comes first, the peptide text is derived from it. [ ]: non-standard residue; d: D form. The star is where a group is joined. Pro(trans-4-NH2) = O=C([C@@H]1C[C@@H](N[*:3])CN1[*:1])[*:2]; X2 = CC(=O)NC1C(OCCn2cc(CCC(=O)*)nn2)OC(CO)C(O)C1O; X1 = O=C(CCCn1cc(CN[*:1])nn1)[*:2]
Target: SBA (soybean agglutinin) (Glycine max, UniProt P05046)
Test: Surface plasmon resonance (SPR) binding to immobilized SBA
Description: Assay: surface plasmon resonance (SPR) experiments were performed on the Biacore T200 at 25° C. using a functionalized CM5 sensor chip. Protein immobilization was performed according to the instrument build-in wizard template. The CM5 sensor chip was activated with a solution containing N-ethyl-N′-(3-[…])-carbodiimide (EDC) (0.2 M) and N-hydroxysuccinimide (NHS) (0.05 M). HPA (10 μg/mL) in NaOAc buffer (pH 6) or SBA (10 μg/mL) in NaOAc buffer (pH 4) was injected over the activated flow cell at flow rate of 10 μL/min for 420 s. Then 1 M ethanolamine at pH 8.5 was injected to block the remaining activated groups. Binding assays were performed with HBS-P+(10 mM HEPES, 150 mM NaCI, 0.05% tween 20, pH 7.4) for HPA or 10 mM HEPES, 150 mM NaCl, 0.05% tween 20, and 100 μM CaCl2, 0.05% tween 20, pH 7.5 for SBA as running buffer. Protein modulator for test (COM1, SL4, SL5 and SL6) were injected onto the surface, with several concentrations of ranging from 6.25 nM to 100 nM for protein modulator COM1 and 10 nM to 160 nM for protein modulators SL4, SL5 and SL6 to HPA or from 62.5 nM to 1000 nM for protein modulator COM1 and 100 nM to 1600 nM for protein modulators SL4, SL5 and SL6 to SBA at the rate of 30 μL/min diluted in the running buffer. The surface was regenerated by 30 s injection of 300 mM GlcNAc for HPA or 100 mM methyl β-D-galactopyranoside for LecA. The sensorgrams were reference subtracted, quality controlled and analyzed by Biacore T200 Evaluation Software, and the kinetic parameters were obtained by fitting curves to 1:1 Langmuir model.

Chain of SBA (soybean agglutinin) (P05046 33-285): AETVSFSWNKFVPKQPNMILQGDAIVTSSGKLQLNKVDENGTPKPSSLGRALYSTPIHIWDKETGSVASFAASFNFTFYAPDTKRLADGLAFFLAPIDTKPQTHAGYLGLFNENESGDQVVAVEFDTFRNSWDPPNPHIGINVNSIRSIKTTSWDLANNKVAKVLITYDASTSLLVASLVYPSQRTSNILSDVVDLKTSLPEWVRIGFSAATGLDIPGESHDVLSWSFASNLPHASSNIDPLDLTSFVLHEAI

Structure (SMILES) | Kd (SPR, Biacore T200, 25° C., SBA immobilized on CM5 chip, HEPES buffer with 100 μM CaCl2 pH 7.5, 1:1 Langmuir model, read-out: KD(nM) SBA) [nM] | Kd [nM]
CC(=O)NC1C(OCCn2cc(CNC(=O)CCOCC(COCCC(=O)NCc3cn(CCOC4OC(CO)C(O)C(O)C4NC(C)=O)nn3)(COCCC(=O)NCc3cn(CCOC4OC(CO)C(O)C(O)C4NC(C)=O)nn3)NC(=O)COCCOCCN)nn2)OC(CO)C(O)C1O (stereo not shown) [COM1, reference compound] | 61.2 | 
CC(=O)NC1C(OCCn2cc(CCC(=O)N[C@@H]3C[C@H]4C(=O)N5CCC[C@H]5C(=O)N5CCC[C@H]5C(=O)N5C[C@H](NC(=O)CCc6cn(CCOC7OC(CO)C(O)C(O)C7NC(C)=O)nn6)C[C@H]5C(=O)N5CCC[C@H]5C(=O)N5CCC[C@H]5C(=O)N5C[C@H](NC(=O)CCc6cn(CCOC7OC(CO)C(O)C(O)C7NC(C)=O)nn6)C[C@H]5C(=O)N5CCC[C@H]5C(=O)N5CCC[C@H]5C(=O)NCc5cn(nn5)CCCC(=O)N5CCC[C@H]5C(=O)N5CCC[C@H]5C(=O)N5CCC[C@H]5C(=O)N5CCC[C@H]5C(=O)N5CCC[C@H]5C(=O)N5CCC[C@H]5C(=O)N5CCC[C@H]5C(=O)N5CCC[C@H]5C(=O)N5CCC[C@H]5C(=O)NCc5cn(nn5)CCCC(=O)N5CCC[C@H]5C(=O)N5CCC[C@H]5C(=O)N5CCC[C@H]5C(=O)N5CCC[C@H]5C(=O)N5CCC[C@H]5C(=O)N5CCC[C@H]5C(=O)N5CCC[C@H]5C(=O)N5CCC[C@H]5C(=O)N5CCC[C@H]5C(=O)NCc5cn(nn5)CCCC(=O)N4C3)nn2)OC(CO)C(O)C1O (stereo partly drawn) [SL6] (cyclo(PPPPPPPPP[X1]PPPPPPPPP[X1][Pro(trans-4-NH2)](X2)PP[Pro(trans-4-NH2)](X2)PP[Pro(trans-4-NH2)](X2)PP[X1])) |  | 255
CC(=O)NC1C(OCCn2cc(CCC(=O)N[C@@H]3C[C@H]4C(=O)N5CCC[C@H]5C(=O)N5CCC[C@H]5C(=O)N5CCC[C@H]5C(=O)N5CCC[C@H]5C(=O)N5CCC[C@H]5C(=O)N5CCC[C@H]5C(=O)N5CCC[C@H]5C(=O)N5CCC[C@H]5C(=O)NCc5cn(nn5)CCCC(=O)N5CCC[C@H]5C(=O)N5CCC[C@H]5C(=O)N5CCC[C@H]5C(=O)N5CCC[C@H]5C(=O)N5CCC[C@H]5C(=O)N5CCC[C@H]5C(=O)N5CCC[C@H]5C(=O)N5CCC[C@H]5C(=O)N5CCC[C@H]5C(=O)NCc5cn(nn5)CCCC(=O)N5C[C@H](NC(=O)CCc6cn(CCOC7OC(CO)C(O)C(O)C7NC(C)=O)nn6)C[C@H]5C(=O)N5CCC[C@H]5C(=O)N5CCC[C@H]5C(=O)N5CCC[C@H]5C(=O)N5CCC[C@H]5C(=O)N5CCC[C@H]5C(=O)N5C[C@H](NC(=O)CCc6cn(CCOC7OC(CO)C(O)C(O)C7NC(C)=O)nn6)C[C@H]5C(=O)N5CCC[C@H]5C(=O)N5CCC[C@H]5C(=O)NCc5cn(nn5)CCCC(=O)N4C3)nn2)OC(CO)C(O)C1O (stereo partly drawn) [SL5] (cyclo(PPPPPPPPP[X1][Pro(trans-4-NH2)](X2)PPPPP[Pro(trans-4-NH2)](X2)PP[X1][Pro(trans-4-NH2)](X2)PPPPPPPP[X1])) |  | 138
CC(=O)NC1C(OCCn2cc(CCC(=O)N[C@@H]3C[C@H]4C(=O)N5CCC[C@H]5C(=O)N5CCC[C@H]5C(=O)N5CCC[C@H]5C(=O)N5CCC[C@H]5C(=O)N5CCC[C@H]5C(=O)N5CCC[C@H]5C(=O)N5CCC[C@H]5C(=O)N5CCC[C@H]5C(=O)NCc5cn(nn5)CCCC(=O)N5C[C@H](NC(=O)CCc6cn(CCOC7OC(CO)C(O)C(O)C7NC(C)=O)nn6)C[C@H]5C(=O)N5CCC[C@H]5C(=O)N5CCC[C@H]5C(=O)N5CCC[C@H]5C(=O)N5CCC[C@H]5C(=O)N5CCC[C@H]5C(=O)N5CCC[C@H]5C(=O)N5CCC[C@H]5C(=O)N5CCC[C@H]5C(=O)NCc5cn(nn5)CCCC(=O)N5C[C@H](NC(=O)CCc6cn(CCOC7OC(CO)C(O)C(O)C7NC(C)=O)nn6)C[C@H]5C(=O)N5CCC[C@H]5C(=O)N5CCC[C@H]5C(=O)N5CCC[C@H]5C(=O)N5CCC[C@H]5C(=O)N5CCC[C@H]5C(=O)N5CCC[C@H]5C(=O)N5CCC[C@H]5C(=O)N5CCC[C@H]5C(=O)NCc5cn(nn5)CCCC(=O)N4C3)nn2)OC(CO)C(O)C1O (stereo partly drawn) [SL4] (cyclo(PPPPPPPP[X1][Pro(trans-4-NH2)](X2)PPPPPPPP[X1][Pro(trans-4-NH2)](X2)PPPPPPPP[X1][Pro(trans-4-NH2)](X2))) |  | 98.1

Source: patent publication US10443026B2, “Polygonal scaffold and manufacturing method thereof, and protein modulator and manufacturing method thereof” (NATIONAL TSING HUA UNIVERSITY, priority 2017, dated 2019)
